From patent US6737383B1, “Herbicidal oxadiazolidines” (priority 1999, dated 2004)

Key:
[1] = test system: bedstraw; test: Test B pre/postemergence bedstraw; type: in vivo, Galium aparine
Summary of the method: (§1)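 Herbicidal effect was estimated by eye on a ten-point control scale after plants spent twelve to sixteen days in a greenhouse following soil or foliar treatment. Foliar sprays targeted plants at one to four leaves; all doses were formulated in a non-phytotoxic solvent with surfactant.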

[2] = test system: blackgrass; test: Test B pre/postemergence blackgrass; type: in vivo, Alopecurus myosuroides
Summary of the method: as §1

[3] = test system: giant foxtail; test: Test B pre/postemergence giant foxtail; type: in vivo, Setaria faberii; details: for Giant foxtail plant response rating: scale of 0 to 10 where 0 is no effect and 10 is complete control
Summary of the method: as §1

[4] = test system: morningglory; test: Test B pre/postemergence morningglory; type: in vivo, Ipomoea hederacea; details: for Morningglory plant response rating: scale of 0 to 10 where 0 is no effect and 10 is complete control
Summary of the method: as §1

[5] = test system: pigweed; test: Test B pre/postemergence pigweed; type: in vivo, Amaranthus retroflexus; details: for Redroot pigweed plant response rating: scale of 0 to 10 where 0 is no effect and 10 is complete control
Summary of the method: as §1

[6] = test system: rape; test: Test B pre/postemergence rape; type: in vivo, Brassica napus; details: for Rape plant response rating: scale of 0 to 10 where 0 is no effect and 10 is complete control
Summary of the method: as §1

[7] = test system: soybean; test: Test B pre/postemergence soybean; type: in vivo, Glycine max
Summary of the method: as §1

[8] = test system: sugar beet; test: Test B pre/postemergence sugar beet; type: in vivo, Beta vulgaris; details: for Sugarbeets plant response rating: scale of 0 to 10 where 0 is no effect and 10 is complete control
Summary of the method: as §1

[9] = test system: velvetleaf; test: Test B pre/postemergence velvetleaf; type: in vivo, Abutilon theophrasti; details: for Velvetleaf plant response rating: scale of 0 to 10 where 0 is no effect and 10 is complete control
Summary of the method: as §1

[10] = test system: wheat; test: Test B pre/postemergence wheat; type: in vivo, Triticum aestivum; details: for Wheat plant response rating: scale of 0 to 10 where 0 is no effect and 10 is complete control
Summary of the method: as §1

[11] = test system: wild oat; test: Test B pre/postemergence wild oat; type: in vivo, Avena fatua; details: for Wild oats plant response rating: scale of 0 to 10 where 0 is no effect and 10 is complete control
Summary of the method: as §1

[12] = test system: purple nutsedge; test: Test B pre/postemergence purple nutsedge; type: in vivo, Cyperus rotundus; details: for Nutsedge plant response rating: scale of 0 to 10 where 0 is no effect and 10 is complete control
Summary of the method: as §1

[13] = test system: rice; test: Test B flood test rice; type: in vivo, Oryza sativa
Summary of the method: (§2)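 Read-out is a visual response score from 0 (no effect) to 10 (complete control), assigned by comparison with untreated controls. Treatment was applied at the 2-leaf stage, and plants stayed in the greenhouse for twelve to sixteen days before scoring.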

[14] = test system: smallflower flatsedge; test: Test B flood test smallflower flatsedge; type: in vivo, Cyperus difformis
Summary of the method: as §2

[15] = test system: duck salad; test: Test B flood test duck salad; type: in vivo, Heteranthera limosa
Summary of the method: as §2

[16] = test system: bamyardgrass; test: Test B flood test barnyardgrass; type: in vivo, Echinochloa crus-galli
Summary of the method: as §2

[17] = Postemergence, Rate 125 g/ha, scale 0 to 10, 0 is no effect, 10 is complete control
[18] = Preemergence, Rate 62 g/ha, scale 0 to 10 (0 no effect, 10 complete control)
[19] = Preemergence, Rate 250 g/ha, scale of 0 to 10 where 0 is no effect and 10 is complete control
[20] = Preemergence, Rate 500 g/ha, scale of 0 to 10 where 0 is no effect and 10 is complete control
[21] = Rate 62 g/ha, Postemergence, scale of 0 to 10 where 0 is no effect and 10 is complete control
[22] = Rate 250 g/ha, Postemergence, scale of 0 to 10 where 0 is no effect and 10 is complete control
[23] = Rate 500 g/ha, Postemergence, scale 0 to 10, 0 no effect, 10 complete control
[24] = Postemergence (flood test), Rate 125 g/ha, scale 0 to 10, 0 is no effect, 10 is complete control
[25] = Rate 62 g/ha, Postemergence (flood test species), scale of 0 to 10 where 0 is no effect and 10 is complete control
[26] = Rate 500 g/ha, listed under Postemergence (flood test species), scale 0 to 10, 0 no effect, 10 complete control

CC(C)N(C(=O)n1oc(=O)n(C2CCCO2)c1=O)c1ccc(F)cc1 (stereo not drawn) [Compound 345]
0: Plant response rating, Bedstraw [1, 17] | Plant response rating, Bedstraw [1, 18] | Bedstraw plant response rating (0 to 10 scale) ([1]; Preemergence, Rate 125 g/ha) | Bedstraw plant response rating [1, 19] | Bedstraw plant response rating [1, 20] | Bedstraw plant response rating [1, 21] | Plant response rating, Bedstraw [1, 22] | Plant response rating, Bedstraw [1, 23] | Plant response rating, Blackgrass [2, 17] | Plant response rating, Blackgrass [2, 18] | Blackgrass plant response rating (0 to 10 scale) ([2]; Preemergence, Rate 125 g/ha) | Blackgrass plant response rating [2, 19] | Blackgrass plant response rating [2, 20] | Blackgrass plant response rating [2, 21] | Plant response rating, Blackgrass [2, 22] | Plant response rating, Blackgrass [2, 23] | Plant response rating, Giant foxtail [3, 17] | Plant response rating, Giant foxtail [3, 18] | Giant foxtail plant response rating (0 to 10 scale) ([3]; Preemergence, Rate 125 g/ha) | Giant foxtail plant response rating ([3]; Preemergence, Rate 250 g/ha) | Giant foxtail plant response rating ([3]; Preemergence, Rate 500 g/ha) | Giant foxtail plant response rating ([3]; Rate 62 g/ha, Postemergence) | Plant response rating, Giant foxtail [3, 23] | Plant response rating, Morningglory [4, 17] | Plant response rating, Morningglory [4, 18] | Morningglory plant response rating (0 to 10 scale) ([4]; Preemergence, Rate 125 g/ha) | Morningglory plant response rating ([4]; Preemergence, Rate 250 g/ha) | Morningglory plant response rating ([4]; Preemergence, Rate 500 g/ha) | Morningglory plant response rating ([4]; Rate 62 g/ha, Postemergence) | Plant response rating, Morningglory [4, 23] | Plant response rating, Redroot pigweed [5, 17] | Plant response rating, Redroot pigweed [5, 18] | Redroot pigweed plant response rating (0 to 10 scale) ([5]; Preemergence, Rate 125 g/ha) | Redroot pigweed plant response rating ([5]; Preemergence, Rate 250 g/ha) | Redroot pigweed plant response rating ([5]; Preemergence, Rate 500 g/ha) | Redroot pigweed plant response rating ([5]; Rate 62 g/ha, Postemergence) | Plant response rating, Redroot pigweed [5, 23] | Plant response rating, Rape [6, 17] | Plant response rating, Rape [6, 18] | Rape plant response rating (0 to 10 scale) ([6]; Preemergence, Rate 125 g/ha) | Rape plant response rating ([6]; Preemergence, Rate 250 g/ha) | Rape plant response rating ([6]; Preemergence, Rate 500 g/ha) | Rape plant response rating ([6]; Rate 62 g/ha, Postemergence) | Plant response rating, Rape [6, 23] | Plant response rating, Soybean [7, 17] | Soybean plant response rating (0 to 10 scale) ([7]; Preemergence, Rate 125 g/ha) | Soybean plant response rating [7, 21] | Plant response rating, Soybean [7, 23] | Plant response rating, Sugarbeets [8, 17] | Plant response rating, Sugarbeets [8, 18] | Sugarbeets plant response rating (0 to 10 scale) ([8]; Preemergence, Rate 125 g/ha) | Sugarbeets plant response rating ([8]; Preemergence, Rate 250 g/ha) | Sugarbeets plant response rating ([8]; Preemergence, Rate 500 g/ha) | Sugarbeets plant response rating ([8]; Rate 62 g/ha, Postemergence) | Plant response rating, Sugarbeets [8, 23] | Plant response rating, Velvetleaf [9, 17] | Plant response rating, Velvetleaf [9, 18] | Velvetleaf plant response rating (0 to 10 scale) ([9]; Preemergence, Rate 125 g/ha) | Velvetleaf plant response rating ([9]; Preemergence, Rate 250 g/ha) | Velvetleaf plant response rating ([9]; Preemergence, Rate 500 g/ha) | Velvetleaf plant response rating ([9]; Rate 62 g/ha, Postemergence) | Plant response rating, Velvetleaf [9, 23] | Plant response rating, Wheat [10, 17] | Plant response rating, Wheat [10, 18] | Wheat plant response rating (0 to 10 scale) ([10]; Preemergence, Rate 125 g/ha) | Wheat plant response rating ([10]; Preemergence, Rate 250 g/ha) | Wheat plant response rating ([10]; Preemergence, Rate 500 g/ha) | Wheat plant response rating ([10]; Rate 62 g/ha, Postemergence) | Plant response rating, Wheat [10, 23] | Plant response rating, Wild oats [11, 17] | Plant response rating, Wild oats [11, 18] | Wild oats plant response rating (0 to 10 scale) ([11]; Preemergence, Rate 125 g/ha) | Wild oats plant response rating ([11]; Preemergence, Rate 250 g/ha) | Wild oats plant response rating ([11]; Preemergence, Rate 500 g/ha) | Wild oats plant response rating ([11]; Rate 62 g/ha, Postemergence) | Plant response rating, Wild oats [11, 23] | Plant response rating, Nutsedge [12, 17] | Plant response rating, Nutsedge [12, 18] | Nutsedge plant response rating (0 to 10 scale) ([12]; Preemergence, Rate 125 g/ha) | Nutsedge plant response rating ([12]; Preemergence, Rate 250 g/ha) | Nutsedge plant response rating ([12]; Preemergence, Rate 500 g/ha) | Nutsedge plant response rating ([12]; Rate 62 g/ha, Postemergence) | Plant response rating, Nutsedge [12, 23] | Plant response rating, Rice [13, 24] | Rice plant response rating [13, 25] | Plant response rating, Rice [13, 26] | Plant response rating, S. Flatsedge [14, 24] | S. Flatsedge plant response rating [14, 25] | Plant response rating, S. Flatsedge [14, 26] | Plant response rating, Ducksalad [15, 24] | Ducksalad plant response rating [15, 25] | Plant response rating, Ducksalad [15, 26] | Plant response rating, Barnyardgrass [16, 24] | Barnyardgrass plant response rating [16, 25] | Plant response rating, Barnyardgrass ([16]; Rate 250 g/ha, Postemergence (flood test species), scale of 0 to 10 where 0 is no effect and 10 is complete control) | Plant response rating, Barnyardgrass [16, 26]
